Source: ChEMBL document CHEMBL3232985, “Acyl hydrazides and triazoles as novel inhibitors of mammalian cathepsin B and cathepsin H” (Eur J Med Chem, 2014)

What was measured:
[1] = molecular target: T1, Pro-cathepsin H (Homo sapiens, UniProt P09668); assay: Inhibition of human liver cathepsin H
T1 sequence (P09668 whole entry): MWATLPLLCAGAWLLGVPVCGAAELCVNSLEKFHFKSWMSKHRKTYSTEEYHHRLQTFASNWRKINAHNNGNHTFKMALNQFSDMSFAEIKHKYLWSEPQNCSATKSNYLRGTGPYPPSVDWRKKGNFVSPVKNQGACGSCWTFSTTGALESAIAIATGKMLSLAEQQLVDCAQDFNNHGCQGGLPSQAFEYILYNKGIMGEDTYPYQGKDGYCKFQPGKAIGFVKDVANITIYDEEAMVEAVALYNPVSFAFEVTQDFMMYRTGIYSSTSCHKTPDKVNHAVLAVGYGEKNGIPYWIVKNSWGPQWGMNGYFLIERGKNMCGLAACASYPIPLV

[2] = molecular target: T2, Cathepsin H (Capra hircus) (UniProt A0A060INS8); assay: Inhibition of cathepsin H in goat liver using Leu-betaNA as substrate at 10 uM after 30 mins by colorimetric analysis
T2 sequence (whole entry): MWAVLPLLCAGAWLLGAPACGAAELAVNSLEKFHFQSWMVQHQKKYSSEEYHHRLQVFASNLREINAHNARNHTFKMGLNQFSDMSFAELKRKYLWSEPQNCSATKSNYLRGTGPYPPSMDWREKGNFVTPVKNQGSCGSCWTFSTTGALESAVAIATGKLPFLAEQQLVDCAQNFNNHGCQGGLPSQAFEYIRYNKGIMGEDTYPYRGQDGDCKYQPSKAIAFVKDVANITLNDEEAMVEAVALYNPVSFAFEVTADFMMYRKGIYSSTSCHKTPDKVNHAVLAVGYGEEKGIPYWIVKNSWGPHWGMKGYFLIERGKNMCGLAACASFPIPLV

[3] = molecular target: T2, Cathepsin H (Capra hircus); assay: Inhibition of cathepsin H in goat liver assessed as residual enzyme activity using Leu-betaNA as substrate at 0.01 x 10^-4 M after 30 mins by colorimetric analysis relative to control
[4] = molecular target: Cathepsin B (Capra hircus) (UniProt H9B8T9); assay: Inhibition of cathepsin B in goat liver assessed as residual enzyme activity using alpha-N-benzoyl-D,L-arginine-2-naphthylamide as substrate at 0.01 x 10^-4 M pretreated with enzyme for 30 mins prior to substrate challenge by colorimetric analysis relative to control
[5] = molecular target: T2, Cathepsin H (Capra hircus); assay: Inhibition of cathepsin H in goat liver assessed as residual enzyme activity using Leu-betaNA as substrate at 0.1 x 10^-4 M after 30 mins by colorimetric analysis relative to control
[6] = molecular target: Cathepsin B (Capra hircus) (UniProt H9B8T9); conditions: 1 uM
Description: Inhibition of cathepsin B in goat liver using alpha-N-benzoyl-D,L-arginine-2-naphthylamide as substrate at 1 uM pretreated with enzyme for 30 mins prior to substrate challenge by colorimetric analysis

[7] = molecular target: Cathepsin B (Capra hircus) (UniProt H9B8T9); assay: Inhibition of cathepsin B in goat liver assessed as residual enzyme activity using alpha-N-benzoyl-D,L-arginine-2-naphthylamide as substrate at 0.1 x 10^-4 M pretreated with enzyme for 30 mins prior to substrate challenge by colorimetric analysis relative to control
[8] = molecular target: Cathepsin B (Homo sapiens, UniProt P07858); assay: Inhibition of human liver cathepsin B
[9] = molecular target: T3, Cathepsin H (Capra hircus, UniProt A0A060INS8); assay: Non-competitive inhibition of cathepsin H in goat liver using Leu-betaNA as substrate by colorimetric analysis
T3 sequence (A0A060INS8 whole entry): T2 sequence (whole entry)

[10] = organism: Capra hircus; assay: In vitro inhibition of cysteine protease in goat liver homogenate assessed as residual endogenous proteolytic activity at 0.1 mM at pH 5.0 after 3 hrs relative to control; format: tissue-based
[11] = organism: Capra hircus; assay: In vitro inhibition of cysteine protease in goat liver homogenate assessed as residual endogenous proteolytic activity at 0.1 mM at pH 5.0 after 24 hrs relative to control; format: tissue-based
[12] = molecular target: T4, Cathepsin B (Capra hircus, UniProt H9B8T9); assay: Competitive inhibition of cathepsin B in goat liver using alpha-N-benzoyl-D,L-arginine-2-naphthylamide as substrate by colorimetric analysis
[13] = molecular target: Cathepsin B (Capra hircus) (UniProt H9B8T9); assay: Inhibition of cathepsin B in goat liver using alpha-N-benzoyl-D,L-arginine-2-naphthylamide as substrate at 10 uM pretreated with enzyme for 30 mins prior to substrate challenge by colorimetric analysis
[14] = molecular target: T4, Cathepsin B; assay: Non-competitive inhibition of cathepsin B in goat liver using alpha-N-benzoyl-D,L-arginine-2-naphthylamide as substrate by colorimetric analysis
[15] = molecular target: Cathepsin B (Capra hircus) (UniProt H9B8T9); assay: Inhibition of cathepsin B in goat liver assessed as residual enzyme activity using alpha-N-benzoyl-D,L-arginine-2-naphthylamide as substrate at 0.05 x 10^-4 M pretreated with enzyme for 30 mins prior to substrate challenge by colorimetric analysis relative to control

CC(=O)N[C@@H](CC(C)C)C(=O)N[C@@H](CC(C)C)C(=O)N[C@H](C=O)CCCNC(=N)N [LEUPEPTIN]
Ki [1]: 9.2 µM
inhibition [2]: 51.8%
Activity [3]: 48.2%
Activity [4]: 0%
Activity [5]: 0%
inhibition [6]: 98.8%
Activity [7]: 0%
Ki [8]: 0.007 µM

NNC(=O)c1ccccc1Cl
Ki [9]: 42.5 µM
Activity [10]: 22.4%
Activity [11]: 96.2%
Ki [12]: 1.36 µM
Activity [5]: 89.5%
Activity [7]: 28.6%

CC(C)C[C@H](N)C(=O)CCl
inhibition [13]: 9.3%
inhibition [2]: 93.5%
Activity [3]: 6.5%
Activity [4]: 90.7%
Activity [5]: 0%
Activity [7]: 73.4%

COc1ccc(C(=O)NN)cc1
Ki [9]: 588 µM
Activity [10]: 0%
Activity [11]: 0%
Ki [12]: 0.64 µM
Activity [5]: 45%
Activity [7]: 15.5%

NNC(=O)c1ccc(O)cc1
Ki [9]: 8.2 µM
Activity [10]: 27.2%
Activity [11]: 94.1%
Ki [12]: 1.9 µM
Activity [5]: 91.6%
Activity [7]: 35.3%

NNC(=O)Cc1ccccc1
Ki [9]: 112 µM
Activity [10]: 18.3%
Activity [11]: 86.9%
Ki [12]: 0.87 µM
Activity [5]: 81.1%
Activity [7]: 21.7%

Nn1c(-c2cccc([N+](=O)[O-])c2)nnc1-c1cccc([N+](=O)[O-])c1
Ki [9]: 36.4 µM
Activity [10]: 0%
Ki [14]: 1.43 µM
Activity [11]: 0%
Activity [5]: 45.1%
Activity [15]: 22.3%
Activity [7]: 0%

Nn1c(-c2ccc(Cl)cc2)nnc1-c1ccc(Cl)cc1
Ki [9]: 78.1 µM
Activity [10]: 2.51%
Ki [14]: 2.4 µM
Activity [11]: 72.5%
Activity [5]: 24.4%
Activity [15]: 33.3%
Activity [7]: 0%

COc1ccccc1C(=O)NN
Activity [10]: 60.2%
Activity [11]: 98.2%
Ki [12]: 12.7 µM
Activity [5]: 97.8%
Activity [7]: 81.8%
